According to ChEMBL document CHEMBL1201862, “PubChem BioAssay data set” (2004):
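96-well plates; 48 h exposure; 5 concentrations. Endpoints by linear interpolation between flanking doses. Not reached: highest tested concentration assigned. At the GI50, growth is halved.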 Active and inactive are the calls of the source. Rule as the data show it: active = GI50 up to about 1.1 µM and inactive = higher.

Key:
Experiment in all cases: DTP human tumour cell line panel, 48 h
786-0 = system: 786-0
COLO 205 = system: COLO 205
DU-145 = system: DU-145
HCT-15 = system: HCT-15
HOP-92 = system: HOP-92
HT-29 = system: HT-29
K562 = system: K562
LOX IMVI = system: LOX IMVI
M14 = system: M14
MCF7 = system: MCF7
MOLT-4 = system: MOLT-4
NCI-H460 = system: NCI-H460
OVCAR-5 = system: OVCAR-5
OVCAR-8 = system: OVCAR-8
SF-268 = system: SF-268
SF-295 = system: SF-295
SK-MEL-28 = system: SK-MEL-28
SK-OV-3 = system: SK-OV-3
SNB-75 = system: SNB-75
SW-620 = system: SW-620

Compound	GI50 (786-0)	GI50 (COLO 205)	GI50 (DU-145)	GI50 (HCT-15)	GI50 (HOP-92)	GI50 (HT-29)	GI50 (K562)	GI50 (LOX IMVI)	GI50 (M14)	GI50 (MCF7)	GI50 (MOLT-4)	GI50 (NCI-H460)	GI50 (OVCAR-5)	GI50 (OVCAR-8)	GI50 (SF-268)	GI50 (SF-295)	GI50 (SK-MEL-28)	GI50 (SK-OV-3)	GI50 (SNB-75)	GI50 (SW-620)
CC(C)(C)c1cc(C(=O)/C=C/c2ccc(C(=O)O)cc2)cc(C(C)(C)C)c1	4.09 µM (inactive)	2.12 µM (inactive)	2.77 µM (inactive)	1.91 µM	6.68 µM (inactive)	3.05 µM (inactive)	3.21 µM (inactive)	3.2 µM (inactive)	1.5 µM (inactive)	3.87 µM (inactive)	2.37 µM (inactive)	1.94 µM (inactive)	4.9 µM (inactive)	2.44 µM (inactive)	2.18 µM (inactive)	2.58 µM (inactive)	2.38 µM (inactive)	2.87 µM (inactive)	0.885 µM (active)	3.42 µM (inactive)
O=C(O)CN1C(=O)OC(c2ccccc2)C1=O (stereo not given)	> 100 µM (inactive)	> 100 µM (inactive)	> 100 µM (inactive)	> 100 µM	> 100 µM (inactive)	> 100 µM (inactive)	> 100 µM (inactive)	> 100 µM (inactive)	> 100 µM (inactive)	> 100 µM (inactive)	> 100 µM (inactive)	> 100 µM (inactive)	> 100 µM (inactive)	> 100 µM (inactive)	> 100 µM (inactive)	> 100 µM (inactive)	> 100 µM (inactive)	> 100 µM (inactive)	> 100 µM (inactive)	> 100 µM (inactive)
COc1cc(C2c3cc(OC)c(OC)c(O)c3C(=O)C3CCC(=O)N32)cc(OC)c1OC (stereo not given)	> 100 µM (inactive)	24.8 µM (inactive)	> 100 µM (inactive)	> 100 µM	35.3 µM (inactive)	70 µM (inactive)	29.3 µM (inactive)	40.8 µM (inactive)	> 100 µM (inactive)	> 100 µM (inactive)	25.6 µM (inactive)	> 100 µM (inactive)	> 100 µM (inactive)	25 µM (inactive)	69.8 µM (inactive)	> 100 µM (inactive)	> 100 µM (inactive)	63 µM (inactive)	63.7 µM (inactive)	35.6 µM (inactive)
COc1ccc2c(c1)CCC(CN1CCN(CCOC(c3ccccc3)c3ccccc3)CC1)C2O (stereo not given)	16.6 µM (inactive)	12.6 µM (inactive)	20.1 µM (inactive)	10.8 µM	14.4 µM (inactive)	5.04 µM (inactive)	6.58 µM (inactive)	17.3 µM (inactive)	14.2 µM (inactive)	18.9 µM (inactive)	11.8 µM (inactive)	16.7 µM (inactive)	16.6 µM (inactive)	14.5 µM (inactive)	16.6 µM (inactive)	18.9 µM (inactive)	16.5 µM (inactive)	17.9 µM (inactive)	17.9 µM (inactive)	20 µM (inactive)
C=CCOCC1C2CCC3(OCCO3)C21 (stereo not given)	> 100 µM (inactive)	> 100 µM (inactive)	> 100 µM (inactive)	> 100 µM	> 100 µM (inactive)	> 100 µM (inactive)	46.9 µM (inactive)	> 100 µM (inactive)	> 100 µM (inactive)	> 100 µM (inactive)	> 100 µM (inactive)	> 100 µM (inactive)	> 100 µM (inactive)	> 100 µM (inactive)	> 100 µM (inactive)	> 100 µM (inactive)	> 100 µM (inactive)	> 100 µM (inactive)	> 100 µM (inactive)	> 100 µM (inactive)
OC1CSCCSCCCSCCSC1	> 100 µM (inactive)	> 100 µM (inactive)	> 100 µM (inactive)	> 100 µM	> 100 µM (inactive)	> 100 µM (inactive)	> 100 µM (inactive)	> 100 µM (inactive)	> 100 µM (inactive)	> 100 µM (inactive)	> 100 µM (inactive)	> 100 µM (inactive)	> 100 µM (inactive)	> 100 µM (inactive)	> 100 µM (inactive)	> 100 µM (inactive)	> 100 µM (inactive)	> 100 µM (inactive)	> 100 µM (inactive)	> 100 µM (inactive)
